# Results from US7041292B1, “Treating prostate cancer with anti-ErbB2 antibodies” (Genentech, Inc., priority 1999, dated 2006).
# “Also recorded” adds a separate entry of the source.
# Assays:
# [1] = system: EGF, TGF-α or HRG mediated activation of MAPK in MCF7 cells; test: EGF, TGF-α or HRG activation of MAPK in MCF7 cells, Western blot; type: cell-based, human; settings: 200 nM antibody; 1 nM EGF, 1 nM TGF-α or 0.2 nM HRG; FIG. 10
# Method: Many growth factor receptors signal through the mitogen-activated protein kinase (MAPK) pathway. These dual specificity kinases are one of the key endpoints in signal transduction pathways that ultimately triggers cancer cells to divide.
# MCF7 cells (10^5 cells/well) were plated in serum containing media in 12-well cell culture plates. The next day, the cell media was removed and fresh media containing 0.1% serum was added to each well. This procedure was then repeated the following day and prior to assay the media was replaced with serum-free binding buffer (Jones et al. J. Biol. Chem. 273:11667–74 (1998); and Schaefer et al. J. Biol. Chem. 274:859–66 (1999)). […] Cells were then treated with 1 nM EGF, 1 nM TGF-α or 0.2 nM HRG for 15 minutes. The reaction was stopped by aspirating the cell medium and then adding 0.2 mL SDS-PAGE sample buffer containing 1% DTT. MAPK activation was assessed by Western blotting using an anti-active MAPK antibody (Promega) as described previously (Jones et al. J. Biol. Chem. 273:11667–74 (1998)).
# [2] = system: CWR22 human prostate cancer xenograft; test: Androgen dependent CWR22 prostate cancer xenograft; type: in vivo, mice; settings: antibody 20 mg/kg twice weekly
# Excerpt: Animal studies: Four to six week old nude athymic BALB/c male and female mice were obtained from the National Cancer Institute-Frederick Cancer Center and maintained in pressurized ventilated caging at the Sloan-Kettering Institute. Male animals were inoculated s.c. with 1×10^6 LNCaP cells or minced tumor tissue from the androgen dependent CWR22, and females received the androgen independent sublines CWR22R, or CWR22SA1, CWRSA4, CWRSA6 which were obtained by selecting tumors for regrowth and increased serum PSA after androgen withdrawal. […] Control mice were given vehicle alone. Tumors were measured every 3–4 days with vernier calipers, and tumor volumes were calculated by the formula: p/6 × larger diameter × (smaller diameter)^2. Animals with palpably established tumors of at least 65 mm^3 in volume were designated to treatment groups.
# Pairwise differences between the tumor volumes of the treatment groups were compared over time using a permutation test. […] The statistic used to test the hypothesis was the sum of the squared differences between mean tumor volume summed over all time points.
# (§3) The effect of an antibody, which blocks ligand activation of an ErbB receptor, on human prostate cancer was assessed.
# (§4) Both antibodies were dosed at 20 mg/kg twice per week.
# [3] = system: CWRSA6 human prostate cancer xenograft; test: Androgen independent CWRSA6 prostate cancer xenograft; type: in vivo, mice
# Method: (§5) Male animals were inoculated s.c. with 1×10^6 LNCaP cells or minced tumor tissue from the androgen dependent CWR22, and females received the androgen independent sublines CWR22R, or CWR22SA1, CWRSA4, CWRSA6 which were obtained by selecting tumors for regrowth and increased serum PSA after androgen withdrawal. […] Control mice were given vehicle alone. Tumors were measured every 3–4 days with vernier calipers, and tumor volumes were calculated by the formula: p/6 × larger diameter × (smaller diameter)^2. Animals with palpably established tumors of at least 65 mm^3 in volume were designated to treatment groups.
# Statistical Analysis. Pairwise differences between the tumor volumes of the treatment groups were compared over time using a permutation test. […] The statistic used to test the hypothesis was the sum of the squared differences between mean tumor volume summed over all time points.
# [4] = system: SK-BR-3 cells; test: SK-BR-3 cell proliferation, crystal violet, 4 days, with or without rHRGβ1; type: cell-based, human; settings: 1% serum, FIG. 4B
# Method: (§1) Experiment was carried out in medium containing 1% serum. Anti-ErbB2 antibodies or medium alone were added and the cells were incubated for 2 hours at 37° C. Subsequently rHRGβ1 (1 nM) or medium alone were added and the cells were incubated for 4 days. Monolayers were washed and stained/fixed with 0.5% crystal violet. To determine cell proliferation the absorbance was measured at 540 nm.
# (§2) ErbB2 levels in MDA-MB-175 cells are 4–6 times higher than the level found in normal breast epithelial cells and the ErbB2-ErbB4 receptor is constitutively tyrosine phosphorylated in MDA-MB-175 cells. […] Inhibition of cell proliferation by 4D5 is dependent on the ErbB2 expression level (Lewis et al. Cancer Immunol. Immunother. 37:255–263 (1993)). […] However this effect […] by exogenous HRG.
# [5] = system: MSKPC6 androgen independent prostate xenograft; test: Androgen independent MSKPC6 prostate xenograft, dose response; type: in vivo; settings: IP loading 6, 20 or 60 mg/kg then 3, 10 or 30 mg/kg twice weekly, FIG. 25
# Method: Dose response studies were carried out using rhuMAb 4D5 in the CWR22R and MSKPC6 (Agus et al. Cancer Research 59:4761–4764 (1999)) androgen independent prostate xenografts. Animals were dosed IP with: control; 6 mg/kg loading dose then 3 mg/kg twice weekly; 20 mg/kg loading dose then 10 mg/kg twice weekly; or 60 mg/kg loading dose then 30 mg/kg twice weekly.
# [6] = system: MDA-MB-175 cells; test: MDA-MB-175 cell proliferation, crystal violet, 4 days, with or without rHRGβ1; type: cell-based, human; settings: 10 μg/mL, not significantly reversed by exogenous HRG, FIG. 4A
# Method: as §1, §2
# [7] = system: CWR22R human prostate cancer xenograft; test: Androgen independent CWR22R prostate cancer xenograft; type: in vivo, mice; settings: for effect on tumor growth / clinical activity: CWR22R androgen independent
# Method: as §5
# Pairwise differences between the tumor volumes of the treatment groups were compared over time using a permutation test.
# as §3
# All injections were given IP (N=5).
# as §4
# [8] = system: LNCaP human prostate cancer xenograft; test: Androgen dependent LNCaP prostate cancer xenograft; type: in vivo, mice; settings: end of the treatment period, n=6
# Excerpt: Animal studies: Four to six week old nude athymic BALB/c male and female mice were obtained from the National Cancer Institute-Frederick Cancer Center and maintained in pressurized ventilated caging at the Sloan-Kettering Institute. Male animals were inoculated s.c. with 1×10^6 LNCaP cells or minced tumor tissue from the androgen dependent CWR22, and females received the androgen independent sublines CWR22R, or CWR22SA1, CWRSA4, CWRSA6 which were obtained by selecting tumors for regrowth and increased serum PSA after androgen withdrawal. All lines were injected together with reconstituted basement membrane (Matrigel; Collaborative Research, Bedford, Mass.) as described previously (Nagabhushan et al. Cancer Res. 56:3042–3046 (1996); Wainstein et al. Cancer Res. 54:6049–6052 (1994); and Sato et al. Cancer Res. 57:1584–1589 (1997)). To maintain serum testosterone levels, male mice were implanted with 12.5-mg sustained release testosterone pellets (Innovative Research of American, Sarasota, Fla.) s.c. before receiving the tumor cell inoculation. […] Control mice were given vehicle alone. Tumors were measured every 3–4 days with vernier calipers, and tumor volumes were calculated by the formula: p/6 × larger diameter × (smaller diameter)^2. Animals with palpably established tumors of at least 65 mm^3 in volume were designated to treatment groups. […]
Molecule,"block of EGF, TGF-α and HRG mediated activation of MAPK [1]",effect on tumor growth / clinical activity [2],effect on tumor growth / clinical activity ([3]; CWRSA6 androgen independent),growth inhibitory effect on SK-BR-3 cells [4],effect on tumor growth [5],growth inhibitory effect on MDA-MB-175 cells [6],effect on tumor growth / clinical activity [7],"mean tumor volume ([3]; CWRSA6, end of the treatment period, n=5)",mean tumor volume [8],"mean tumor volume ([7]; CWR22R, end of the treatment period, n=5)"
"2C4: murine monoclonal antibody binding the extracellular domain of ErbB2, blocks ligand activation; ATCC HB12697 [Mutant 2C4]",significantly blocks,has clinical activity,has clinical activity,no inhibitory effect,suppresses the growth of androgen-independent tumor xenografts in a dose dependent manner,strong growth inhibitory effect,has clinical activity; also recorded: suppresses the growth of androgen-independent tumor xenografts in a dose dependent manner,–,–,–
"CC(=O)O[C@H]1C(=O)[C@@]2(C)[C@H]([C@H](OC(=O)c3ccccc3)[C@]3(O)C[C@H](OC(=O)[C@H](O)[C@@H](NC(=O)c4ccccc4)c4ccccc4)C(C)=C1C3(C)C)[C@]1(OC(C)=O)CO[C@@H]1C[C@@H]2O [paclitaxel, reference compound]",–,–,–,–,–,–,–,"1,496 mm^3",233 mm^3,"1,273 mm^3"
"PEG-Fab: Fab' fragment of rhuMAb 2C4 expressed in E. coli and conjugated to 20 kD branched polyethylene glycol (conjugate, chains of the INN, looked up, Fab' 20 kD branched PEG) VH: EVQLVESGGGLVQPGGSLRLSCAASGFTFTDYTMDWVRQAPGKGLEWVADVNPNSGGSIYNQRFKGRFTLSVDRSKNTLYLQMNSLRAEDTAVYYCARNLGPSFYFDYWGQGTLVTVSS VL: DIQMTQSPSSLSASVGDRVTITCKASQDVSIGVAWYQQKPGKAPKLLIYSASYRYTGVPSRFSGSGSGTDFTLTISSLQPEDFATYYCQQYYIYPYTFGQGTKVEIK",–,–,–,–,–,–,inhibits tumor growth,–,–,–
